# Reference: ChEMBL document CHEMBL3885881, “DrugMatrix”
# Organism: Rattus norvegicus
# Assay: DrugMatrix - Regimen: Daily Repeat
# Assay type: toxicity, organism-based, Sprague-Dawley
# Parameters: regimen Daily Repeat, gender Male, age 6-8 weeks
# Conditions: in vivo, 0 mg/kg, dose level Control, vehicle 100 % SALINE; for ABSOLUTE BASOPHIL / ABSOLUTE EOSINOPHIL / ABSOLUTE LYMPHOCYTE / ABSOLUTE MONOCYTE / ABSOLUTE SEGMENTED NEUTROPHIL / BASOPHIL / EOSINOPHIL / ERYTHROCYTE COUNT / HEMATOCRIT / HEMOGLOBIN / LEUKOCYTE COUNT / LYMPHOCYTE / MEAN CORPUSCULAR HEMOGLOBIN / MEAN CORPUSCULAR HEMOGLOBIN CONCENTRATION / MEAN CORPUSCULAR VOLUME / MONOCYTE / NEUTROPHIL / NUCLEATED RED BLOOD CELLS / PLATELET COUNT: tissue Blood; for ALANINE AMINOTRANSFERASE / ALBUMIN / ALKALINE PHOSPHATASE / ASPARTATE AMINOTRANSFERASE / BLOOD UREA NITROGEN / CARBON DIOXIDE / CHLORIDE / CHOLESTEROL / CREATINE PHOSPHOKINASE / CREATININE / GLUCOSE / LIPASE / PHOSPHORUS / POTASSIUM / SODIUM / TOTAL BILIRUBIN / TOTAL PROTEIN / URIC ACID: tissue Plasma
# [1] = po, 72 h, route oral GAVAGE, time 3 day
# [2] = po, 120 h, route oral GAVAGE, time 5 day
smiles,measurement,setting,value
COc1cccc2c1C(=O)c1c(O)c3c(c(O)c1C2=O)C[C@@](O)(C(C)=O)C[C@@H]3O[C@H]1C[C@H](N)[C@H](O)[C@H](C)O1 [DAUNORUBICIN],ABSOLUTE BASOPHIL,"iv, 72 h, time 3 day",0 CELLS/uL
same,ABSOLUTE EOSINOPHIL,"iv, 72 h, time 3 day",21.67 CELLS/uL
same,ABSOLUTE LYMPHOCYTE,"iv, 72 h, time 3 day",10193.67 CELLS/uL
same,ABSOLUTE MONOCYTE,"iv, 72 h, time 3 day",165.83 CELLS/uL
same,ABSOLUTE SEGMENTED NEUTROPHIL,"iv, 72 h, time 3 day",702.17 CELLS/uL
same,BASOPHIL,"iv, 72 h, time 3 day",0%
same,EOSINOPHIL,"iv, 72 h, time 3 day",0.17%
same,ERYTHROCYTE COUNT,"iv, 72 h, time 3 day",5.39 x10E6/uL
same,HEMATOCRIT,"iv, 72 h, time 3 day",34.62%
same,HEMOGLOBIN,"iv, 72 h, time 3 day",13.8 G/DL
same,LEUKOCYTE COUNT,"iv, 72 h, time 3 day",11.08 x10E3/uL
same,LYMPHOCYTE,"iv, 72 h, time 3 day",91.83%
same,MEAN CORPUSCULAR HEMOGLOBIN,"iv, 72 h, time 3 day",25.68 pg
same,MEAN CORPUSCULAR HEMOGLOBIN CONCENTRATION,"iv, 72 h, time 3 day",39.9 G/DL
same,MEAN CORPUSCULAR VOLUME,"iv, 72 h, time 3 day",64.37 fL
same,MONOCYTE,"iv, 72 h, time 3 day",1.5%
same,NEUTROPHIL,"iv, 72 h, time 3 day",6.5%
same,NUCLEATED RED BLOOD CELLS,"iv, 72 h, time 3 day",0 /100WBC
same,PLATELET COUNT,"iv, 72 h, time 3 day",1202.83 x10E3/uL
same,ALANINE AMINOTRANSFERASE,"iv, 72 h, time 3 day",55.5 u/L
same,ALBUMIN,"iv, 72 h, time 3 day",4.22 G/DL
same,ALKALINE PHOSPHATASE,"iv, 72 h, time 3 day",406.83 u/L
same,ASPARTATE AMINOTRANSFERASE,"iv, 72 h, time 3 day",101.5 u/L
same,BLOOD UREA NITROGEN,"iv, 72 h, time 3 day",13.5 mg/dL
same,CARBON DIOXIDE,"iv, 72 h, time 3 day",30.33 mmol/L
same,CHLORIDE,"iv, 72 h, time 3 day",102.17 MEQ/L
same,CHOLESTEROL,"iv, 72 h, time 3 day",63.67 mg/dL
same,CREATINE PHOSPHOKINASE,"iv, 72 h, time 3 day",732.67 u/L
same,CREATININE,"iv, 72 h, time 3 day",0.2 mg/dL
same,GLUCOSE,"iv, 72 h, time 3 day",157 mg/dL
same,LIPASE,"iv, 72 h, time 3 day",10.83 u/L
same,PHOSPHORUS,"iv, 72 h, time 3 day",12.68 mg/dL
same,POTASSIUM,"iv, 72 h, time 3 day",5.67 MEQ/L
same,SODIUM,"iv, 72 h, time 3 day",144 MEQ/L
same,TOTAL BILIRUBIN,"iv, 72 h, time 3 day",0.15 mg/dL
same,TOTAL PROTEIN,"iv, 72 h, time 3 day",6.02 G/DL
same,URIC ACID,"iv, 72 h, time 3 day",1.55 mg/dL
same,ABSOLUTE BASOPHIL,"iv, 120 h, time 5 day",0 CELLS/uL
same,ABSOLUTE EOSINOPHIL,"iv, 120 h, time 5 day",17 CELLS/uL
same,ABSOLUTE LYMPHOCYTE,"iv, 120 h, time 5 day",11849.17 CELLS/uL
same,ABSOLUTE MONOCYTE,"iv, 120 h, time 5 day",69.83 CELLS/uL
same,ABSOLUTE SEGMENTED NEUTROPHIL,"iv, 120 h, time 5 day",730.67 CELLS/uL
same,BASOPHIL,"iv, 120 h, time 5 day",0%
same,EOSINOPHIL,"iv, 120 h, time 5 day",0.17%
same,ERYTHROCYTE COUNT,"iv, 120 h, time 5 day",5.93 x10E6/uL
same,HEMATOCRIT,"iv, 120 h, time 5 day",37.42%
same,HEMOGLOBIN,"iv, 120 h, time 5 day",14.4 G/DL
same,LEUKOCYTE COUNT,"iv, 120 h, time 5 day",12.67 x10E3/uL
same,LYMPHOCYTE,"iv, 120 h, time 5 day",93.17%
same,MEAN CORPUSCULAR HEMOGLOBIN,"iv, 120 h, time 5 day",24.32 pg
same,MEAN CORPUSCULAR HEMOGLOBIN CONCENTRATION,"iv, 120 h, time 5 day",38.5 G/DL
same,MEAN CORPUSCULAR VOLUME,"iv, 120 h, time 5 day",63.08 fL
same,MONOCYTE,"iv, 120 h, time 5 day",0.5%
same,NEUTROPHIL,"iv, 120 h, time 5 day",6.17%
same,NUCLEATED RED BLOOD CELLS,"iv, 120 h, time 5 day",0 /100WBC
same,PLATELET COUNT,"iv, 120 h, time 5 day",1170.5 x10E3/uL
same,ALANINE AMINOTRANSFERASE,"iv, 120 h, time 5 day",51 u/L
same,ALBUMIN,"iv, 120 h, time 5 day",4.12 G/DL
same,ALKALINE PHOSPHATASE,"iv, 120 h, time 5 day",392.67 u/L
same,ASPARTATE AMINOTRANSFERASE,"iv, 120 h, time 5 day",81.67 u/L
same,BLOOD UREA NITROGEN,"iv, 120 h, time 5 day",16.17 mg/dL
same,CARBON DIOXIDE,"iv, 120 h, time 5 day",30.67 mmol/L
same,CHLORIDE,"iv, 120 h, time 5 day",100.5 MEQ/L
same,CHOLESTEROL,"iv, 120 h, time 5 day",64.83 mg/dL
same,CREATINE PHOSPHOKINASE,"iv, 120 h, time 5 day",242.67 u/L
same,CREATININE,"iv, 120 h, time 5 day",0.2 mg/dL
same,GLUCOSE,"iv, 120 h, time 5 day",186.83 mg/dL
same,LIPASE,"iv, 120 h, time 5 day",10.83 u/L
same,PHOSPHORUS,"iv, 120 h, time 5 day",11.67 mg/dL
same,POTASSIUM,"iv, 120 h, time 5 day",5.51 MEQ/L
same,SODIUM,"iv, 120 h, time 5 day",142.55 MEQ/L
same,TOTAL BILIRUBIN,"iv, 120 h, time 5 day",0.22 mg/dL
same,TOTAL PROTEIN,"iv, 120 h, time 5 day",6.08 G/DL
same,URIC ACID,"iv, 120 h, time 5 day",1.85 mg/dL
same,ABSOLUTE BASOPHIL,[1],140 cells/µL
same,ABSOLUTE EOSINOPHIL,[1],43.3 cells/µL
same,ABSOLUTE LYMPHOCYTE,[1],7570 cells/µL
same,ABSOLUTE MONOCYTE,[1],160 cells/µL
same,BASOPHIL,[1],1.47%
same,EOSINOPHIL,[1],0.47%
same,ERYTHROCYTE COUNT,[1],6.68 x10E6/uL
same,HEMATOCRIT,[1],44.33%
same,HEMOGLOBIN,[1],14.43 G/DL
same,LEUKOCYTE COUNT,[1],9.33 x10E3/uL
same,LYMPHOCYTE,[1],81.23%
same,MEAN CORPUSCULAR HEMOGLOBIN,[1],21.67 pg
same,MEAN CORPUSCULAR HEMOGLOBIN CONCENTRATION,[1],32.6 G/DL
same,MEAN CORPUSCULAR VOLUME,[1],66.43 fL
same,MONOCYTE,[1],1.73%
same,NEUTROPHIL,[1],14.7%
same,PLATELET COUNT,[1],1341.67 x10E3/uL
same,ALANINE AMINOTRANSFERASE,[1],31 u/L
same,ALBUMIN,[1],4.03 G/DL
same,ALKALINE PHOSPHATASE,[1],447 u/L
same,ASPARTATE AMINOTRANSFERASE,[1],61.33 u/L
same,BLOOD UREA NITROGEN,[1],15.67 mg/dL
same,CARBON DIOXIDE,[1],43 mmol/L
same,CHLORIDE,[1],103.33 MEQ/L
same,CHOLESTEROL,[1],83.67 mg/dL
same,CREATINE PHOSPHOKINASE,[1],174.33 u/L
same,CREATININE,[1],0.4 mg/dL
same,GLUCOSE,[1],173 mg/dL
same,LIPASE,[1],17.33 u/L
same,PHOSPHORUS,[1],10.27 mg/dL
same,POTASSIUM,[1],6.47 MEQ/L
same,SODIUM,[1],143.67 MEQ/L
same,TOTAL BILIRUBIN,[1],0.37 mg/dL
same,TOTAL PROTEIN,[1],6.63 G/DL
same,URIC ACID,[1],1.03 mg/dL
same,ABSOLUTE BASOPHIL,[2],53.3 cells/µL
same,ABSOLUTE EOSINOPHIL,[2],210 cells/µL
same,ABSOLUTE LYMPHOCYTE,[2],8220 cells/µL
same,ABSOLUTE MONOCYTE,[2],200 cells/µL
same,BASOPHIL,[2],0.53%
same,EOSINOPHIL,[2],2.1%
same,ERYTHROCYTE COUNT,[2],7 x10E6/uL
same,HEMATOCRIT,[2],44%
same,HEMOGLOBIN,[2],14.53 G/DL
same,LEUKOCYTE COUNT,[2],10.44 x10E3/uL
same,LYMPHOCYTE,[2],78.07%
same,MEAN CORPUSCULAR HEMOGLOBIN,[2],20.77 pg
same,MEAN CORPUSCULAR HEMOGLOBIN CONCENTRATION,[2],33 G/DL
same,MEAN CORPUSCULAR VOLUME,[2],62.87 fL
same,MONOCYTE,[2],1.87%
same,NEUTROPHIL,[2],16.8%
same,PLATELET COUNT,[2],1104.33 x10E3/uL
same,ALANINE AMINOTRANSFERASE,[2],31.67 u/L
same,ALBUMIN,[2],3.93 G/DL
same,ALKALINE PHOSPHATASE,[2],394.67 u/L
same,ASPARTATE AMINOTRANSFERASE,[2],65.67 u/L
same,BLOOD UREA NITROGEN,[2],15.67 mg/dL
same,CARBON DIOXIDE,[2],40.67 mmol/L
same,CHLORIDE,[2],104.33 MEQ/L
same,CHOLESTEROL,[2],66.33 mg/dL
same,CREATINE PHOSPHOKINASE,[2],346.67 u/L
same,CREATININE,[2],0.33 mg/dL
same,GLUCOSE,[2],176.67 mg/dL
same,LIPASE,[2],14.33 u/L
same,PHOSPHORUS,[2],11.17 mg/dL
same,POTASSIUM,[2],6.53 MEQ/L
same,SODIUM,[2],146 MEQ/L
